In PubChem BioAssay (NCI):
Several values for one entry are separate records, joined by “and”; a condition that tells them apart may be missing. Equal entries are not always repeated.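 48-hour exposure; five concentrations; linearly interpolated endpoints. GI50 marks 50% less growth. At the TGI there is no net growth.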

Columns and labels:
Experiment in all cases: inhibition of tumour cell growth, NCI panel, 48 h
SNB-78 CNS = tested on: SNB-78 CNS
HS 578T breast = tested on: HS 578T breast
LOX IMVI melanoma = tested on: LOX IMVI melanoma
NCI-H23 lung = tested on: NCI-H23 lung
SK-MEL-2 melanoma = tested on: SK-MEL-2 melanoma
HOP-62 NSCLC = tested on: HOP-62 NSCLC
MOLT-4 leukemia = tested on: MOLT-4 leukemia
LXFL 529 NSCLC = tested on: LXFL 529 NSCLC
K-562 leukemia = tested on: K-562 leukemia
U251 CNS = tested on: U251 CNS

| SMILES | TGI (SNB-78 CNS) | TGI (HS 578T breast) [nM] | TGI (LOX IMVI melanoma) | TGI (NCI-H23 lung) | TGI (SK-MEL-2 melanoma) [µM] | TGI (HOP-62 NSCLC) | TGI (MOLT-4 leukemia) | TGI (LXFL 529 NSCLC) [µM] | TGI (K-562 leukemia) [µM] | TGI (U251 CNS) | GI50 (SNB-78 CNS) [µM] | GI50 (LOX IMVI melanoma) [nM] | GI50 (NCI-H23 lung) [nM] | GI50 (HOP-62 NSCLC) | GI50 (MOLT-4 leukemia) | GI50 (U251 CNS) | GI50 (SK-MEL-2 melanoma) [µM] | GI50 (LXFL 529 NSCLC) [µM] | GI50 (K-562 leukemia) [µM] |
| --- | --- | --- | --- | --- | --- | --- | --- | --- | --- | --- | --- | --- | --- | --- | --- | --- | --- | --- | --- |
| O=CN/C=C/c1cccc(O)c1 | > 100 µM | > 95100 | 69.1 µM | 72.4 µM | > 81.6 | 65.8 µM | > 100 µM | > 100 | > 100 | > 83 µM |  |  |  |  |  |  |  |  |  |
| COc1cccc2c1C(=O)c1c(O)c3c(c(O)c1C2=O)CC(O)(C(O)CO)CC3OC1CC(N2CCOCC2)C(O)C(C)O1 (configuration not stated) | 0.0323 µM and 0.188 µM | 214 | 0.15 µM and 0.0586 µM | 0.0249 µM and 0.0419 µM | 0.0117 | 0.0566 µM and 0.081 µM | 0.205 µM and 0.185 µM | 0.0553 | 1.61 | 1.26 µM and 1.05 µM | < 0.001 | 2.85 | 17.4 | 0.0262 µM | 9.7 nM and 24.3 nM | 0.0155 µM |  |  |  |
| COc1cc([C@@H]2c3cc4c(cc3[C@@H](OC(=O)c3ccc(N)cc3)C3COC(=O)[C@@H]32)OCO4)cc(OC)c1O (some centres not stated) | > 95 µM |  | 50.7 µM | 14.4 µM | 59.6 | 26.9 µM | 67.4 µM | > 95 | > 95 | 28.7 µM |  |  |  |  |  |  |  |  |  |
| O=C1C2C3C=C4c5ccccc5N(c5ccccc5)C4(C2C(=O)N1c1ccc(Cl)cc1)[C@H]1C(=O)N(c2ccc(Cl)cc2)C(=O)[C@@H]31 (some centres not stated) | > 100 µM |  | > 100 µM | > 100 µM | > 100 | > 100 µM | > 100 µM | > 100 | > 100 | > 100 µM |  |  |  |  |  |  |  |  |  |
| COC(=O)/C(=N\NC(=O)C[N+](C)(C)C)C(C(=O)OC)C(=O)C(=O)Nc1ccccc1C(N)=O (configuration not stated) | > 100 µM |  | > 100 µM | > 100 µM | > 100 | > 100 µM | > 100 µM | > 100 | > 100 | > 100 µM |  |  |  |  |  |  |  |  |  |
| COc1cc(NC(C)CCCN)c2ncccc2c1 (configuration not stated) | > 100 µM | > 100000 | > 100 µM | > 100 µM | > 89.3 | > 100 µM | > 100 µM | > 100 | > 100 | > 100 µM |  |  |  | 43.6 µM and > 91.6 µM |  | 39 µM and 86.1 µM |  |  |  |
| Cc1ccc(SSc2ccc(C)cc2C(=O)O)c(C(=O)O)c1 | > 100 µM |  | > 100 µM | > 100 µM | > 100 | > 100 µM | > 100 µM | > 100 | > 100 | > 100 µM |  |  |  |  |  |  |  |  |  |
| CC1OC(OC2C[C@](O)(C(=O)CF)Cc3c(O)c4c(c(O)c32)C(=O)c2ccccc2C4=O)CC(N)C1O (some centres not stated) | 3.53 µM | 117 | 0.276 µM | 0.169 µM | 0.512 | 0.0462 µM | 0.0101 µM | 1.27 | 1.96 | 0.394 µM |  |  |  |  |  |  |  |  |  |
| N.N.N.N.N.[Cl-].[Co+3].c1ccc(-c2nn[n-]n2)cc1 | > 100 µM |  | > 100 µM | > 100 µM | > 100 | > 100 µM | > 100 µM | > 100 | > 100 | > 100 µM | > 100 | > 100000 | > 100000 | > 100 µM | > 100000 nM | > 100 µM | > 100 | > 100 | > 100 |
